From patent US11492335B2, “Aryl or heteroaryl triazolone derivatives or salts thereof, or pharmaceutical compositions comprising the same” (YUHAN CORPORATION, priority 2018, dated 2022)
Structures can show the parent of a compound that is named as a salt. Where two headings read alike, the source gives them in different places.

Columns and labels:
Assay type in all cases: biochemical
recombinant human VAP-1 = target: T1, recombinant human VAP-1 (Homo sapiens, UniProt Q16853); test: Activity on recombinant human VAP-1, Amplex Red HRP-coupled hydrogen peroxide assay, benzylamine substrate; details: recombinant human VAP-1, benzylamine substrate, 30 min preincubation at 37° C.; read-out: Inhibitory Activity (IC50, nM) human VAP-1
T1 construct: purchased R&D systems
T1 sequence (Q16853 1-763): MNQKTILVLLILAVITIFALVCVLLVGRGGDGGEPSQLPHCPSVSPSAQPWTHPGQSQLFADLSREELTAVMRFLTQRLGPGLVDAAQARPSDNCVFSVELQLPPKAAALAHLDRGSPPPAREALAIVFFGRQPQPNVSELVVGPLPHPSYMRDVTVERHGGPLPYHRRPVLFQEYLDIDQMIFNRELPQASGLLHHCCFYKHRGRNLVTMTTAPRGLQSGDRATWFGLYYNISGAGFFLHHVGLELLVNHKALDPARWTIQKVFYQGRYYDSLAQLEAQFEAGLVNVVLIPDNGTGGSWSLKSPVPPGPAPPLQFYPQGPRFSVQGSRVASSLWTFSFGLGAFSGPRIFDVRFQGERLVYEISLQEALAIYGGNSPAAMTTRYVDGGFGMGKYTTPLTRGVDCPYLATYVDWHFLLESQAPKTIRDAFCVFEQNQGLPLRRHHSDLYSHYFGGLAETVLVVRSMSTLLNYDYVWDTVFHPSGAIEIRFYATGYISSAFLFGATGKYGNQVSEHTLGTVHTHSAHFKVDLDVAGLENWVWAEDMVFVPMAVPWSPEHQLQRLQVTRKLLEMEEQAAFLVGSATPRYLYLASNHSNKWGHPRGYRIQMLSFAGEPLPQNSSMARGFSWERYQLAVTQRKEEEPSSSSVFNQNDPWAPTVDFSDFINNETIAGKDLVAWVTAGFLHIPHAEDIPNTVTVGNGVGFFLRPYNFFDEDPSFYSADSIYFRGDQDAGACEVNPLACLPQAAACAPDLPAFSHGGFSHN
Method in brief: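 Dose-response IC50 determined from reduction in resorufin signal rate (544/590 nm, 1-2 h), with 30 min compound preincubation at 37 °C and 1 mM benzylamine as substrate.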

[1] = target: T2, recombinant human MAO-A (monoamine oxidase-A) (Homo sapiens, UniProt P21397); test: Activity on recombinant human MAO-A, Amplex Red method, 0.5 mM tyramine substrate; details: 0.5 mM tyramine, read-out: Inhibitory Activity (IC50, nM) MAO-A
T2 construct: purchased Sigma-Aldrich
T2 sequence (P21397 1-527): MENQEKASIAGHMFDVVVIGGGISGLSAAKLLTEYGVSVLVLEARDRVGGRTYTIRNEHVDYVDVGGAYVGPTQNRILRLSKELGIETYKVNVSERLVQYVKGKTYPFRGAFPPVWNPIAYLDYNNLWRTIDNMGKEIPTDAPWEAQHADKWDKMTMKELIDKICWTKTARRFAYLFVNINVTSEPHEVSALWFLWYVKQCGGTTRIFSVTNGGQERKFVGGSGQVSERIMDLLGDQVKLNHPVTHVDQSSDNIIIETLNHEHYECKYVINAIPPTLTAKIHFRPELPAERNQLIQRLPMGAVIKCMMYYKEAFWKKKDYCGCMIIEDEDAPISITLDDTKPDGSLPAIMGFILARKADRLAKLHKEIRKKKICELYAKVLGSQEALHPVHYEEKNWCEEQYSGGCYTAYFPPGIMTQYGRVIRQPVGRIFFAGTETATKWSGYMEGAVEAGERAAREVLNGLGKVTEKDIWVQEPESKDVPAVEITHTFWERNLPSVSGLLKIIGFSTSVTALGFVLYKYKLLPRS
Method in brief: (§1)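 Amplex Red/HRP coupled read-out of H2O2 with 0.5 mM tyramine for MAO-A or 1 mM benzylamine for MAO-B, following a 30-min compound–enzyme preincubation at 37° C. IC50 from percent inhibition of signal rate relative to uninhibited control.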

[2] = target: T3, recombinant human MAO-B (monoamine oxidase-B) (Homo sapiens, UniProt P27338); test: Activity on recombinant human MAO-B, Amplex Red method, 1 mM benzylamine substrate; details: 1 mM benzylamine, read-out: Inhibitory Activity (IC50, nM) MAO-B
T3 construct: purchased Sigma-Aldrich
T3 sequence (P27338 1-520): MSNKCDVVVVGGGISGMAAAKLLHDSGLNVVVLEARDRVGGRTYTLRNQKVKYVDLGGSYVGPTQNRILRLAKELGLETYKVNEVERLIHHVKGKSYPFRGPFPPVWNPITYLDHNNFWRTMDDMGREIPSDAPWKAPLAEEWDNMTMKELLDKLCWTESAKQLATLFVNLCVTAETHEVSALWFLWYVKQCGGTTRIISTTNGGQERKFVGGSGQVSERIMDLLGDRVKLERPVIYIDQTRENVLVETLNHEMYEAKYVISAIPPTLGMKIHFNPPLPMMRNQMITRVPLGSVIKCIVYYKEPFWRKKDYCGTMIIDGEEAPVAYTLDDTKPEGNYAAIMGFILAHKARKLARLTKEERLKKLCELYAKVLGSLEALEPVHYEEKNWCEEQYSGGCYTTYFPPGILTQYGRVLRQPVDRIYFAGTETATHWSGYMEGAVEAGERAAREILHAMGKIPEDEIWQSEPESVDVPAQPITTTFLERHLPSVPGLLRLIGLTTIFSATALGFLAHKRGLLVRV
Method in brief: as §1

[3] = target: T4, recombinant human DAO (diamine oxidase) (Homo sapiens, UniProt P19801); test: Activity on recombinant human DAO, Amplex Red method, 1 mM putrescine substrate
T4 construct: purchased R&D systems
T4 sequence (P19801 20-751): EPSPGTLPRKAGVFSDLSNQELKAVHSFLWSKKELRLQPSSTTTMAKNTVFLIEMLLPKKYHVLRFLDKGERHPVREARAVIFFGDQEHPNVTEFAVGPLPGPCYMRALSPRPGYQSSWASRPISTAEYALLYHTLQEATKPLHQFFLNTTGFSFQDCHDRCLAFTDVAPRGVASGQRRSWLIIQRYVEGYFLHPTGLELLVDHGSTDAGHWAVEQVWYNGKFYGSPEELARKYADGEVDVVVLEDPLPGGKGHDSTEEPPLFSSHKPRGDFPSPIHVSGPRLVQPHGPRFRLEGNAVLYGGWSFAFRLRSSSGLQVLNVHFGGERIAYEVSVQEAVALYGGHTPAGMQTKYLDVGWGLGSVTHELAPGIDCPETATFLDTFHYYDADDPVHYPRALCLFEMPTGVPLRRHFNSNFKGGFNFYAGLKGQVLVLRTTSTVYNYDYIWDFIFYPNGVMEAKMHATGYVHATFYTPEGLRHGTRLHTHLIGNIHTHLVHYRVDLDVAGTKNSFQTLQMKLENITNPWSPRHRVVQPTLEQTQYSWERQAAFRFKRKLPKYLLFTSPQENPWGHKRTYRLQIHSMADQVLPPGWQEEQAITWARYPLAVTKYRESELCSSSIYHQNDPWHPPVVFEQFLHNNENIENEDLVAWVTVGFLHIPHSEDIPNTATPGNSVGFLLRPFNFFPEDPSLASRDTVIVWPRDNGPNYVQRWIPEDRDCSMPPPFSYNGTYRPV
Method in brief: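 Inhibition of recombinant human DAO (diamine oxidase, R&D systems) was assessed with the Amplex Red Hydrogen Peroxide Assay Kit. Hydrogen peroxide produced from 1 mM putrescine was detected through an HRP-coupled reaction that converts Amplex Red into fluorescent resorufin, read at 544 nm excitation and 590 nm emission. IC50 values came from four-parameter logistic fits in GraphPad Prism.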

[4] = recombinant human DAO, 1 mM putrescine, * = between 10 and 100 nM, ** = between 300 and 1000 nM, read-out: Inhibitory Activity (IC50, nM) DAO

Compound	IC50 (recombinant human VAP-1) [nM]	IC50 [1] [nM]	IC50 [2] [nM]	IC50 [3, 4] [nM]	IC50 [3] [nM]
NC/C(=C\F)Cn1ncn(-c2cccc(C3=CCNCC3)c2)c1=O [Example 48, 2-[(2E)-2-(aminomethyl)-3-fluoroprop-2-en-1-yl]-4-[3-(1,2,3,6-tetrahydropyridin-4-yl)phenyl]-2,4-dihydro-3H-1,2,4-triazol-3-one dihydrochloride]	0.56	> 100000	> 10000	–	0.79
CC(=O)c1ccc(-c2cccc(-n3cnn(C/C(=C/F)CN)c3=O)c2)s1 [Example 49, 4-[3-(5-acetylthiophen-2-yl)phenyl]-2-[(2E)-2-(aminomethyl)-3-fluoroprop-2-en-1-yl]-2,4-dihydro-3H-1,2,4-triazol-3-one hydrochloride]	0.2	> 100000	800	2.1	–
NC/C(=C\F)Cn1ncn(-c2cccc(-c3ccc(OC(F)(F)F)cc3)c2)c1=O [Example 50, 2-[(2E)-2-(aminomethyl)-3-fluoroprop-2-en-1-yl]-4-[4′-(trifluoromethoxy)biphenyl-3-yl]-2,4-dihydro-3H-1,2,4-triazol-3-one hydrochloride]	1	> 10000	510	< 100	–
CC(C)Sc1ccc(-c2cccc(-n3cnn(C/C(=C/F)CN)c3=O)c2)cc1 [Example 52, 2-[(2E)-2-(aminomethyl)-3-fluoroprop-2-en-1-yl]-4-[4′-(propan-2-ylsulfanyl)biphenyl-3-yl]-2,4-dihydro-3H-1,2,4-triazol-3-one hydrochloride]	1.2	50000	3600	24	–
NC/C(=C/F)Cn1ncn(-c2cccc(-c3ccc(-c4nnc[nH]4)cc3)c2)c1=O [Example 58, 2-[(2Z)-2-(aminomethyl)-3-fluoroprop-2-en-1-yl]-4-[4′-(4H-1,2,4-triazol-3-yl)biphenyl-3-yl]-2,4-dihydro-3H-1,2,4-triazol-3-one]	0.63	> 100000	> 10000	< 100	–
NC/C(=C\F)Cn1ncn(-c2cccc(-c3ccc(-c4nnc[nH]4)cc3)c2)c1=O [Example 59, 2-[(2E)-2-(aminomethyl)-3-fluoroprop-2-en-1-yl]-4-[4′-(4H-1,2,4-triazol-3-yl)biphenyl-3-yl]-2,4-dihydro-3H-1,2,4-triazol-3-one]	0.62	> 100000	> 10000	< 100	–
NC/C(=C\F)Cn1ncn(-c2cccc(-c3ccc(-c4ncon4)cc3)c2)c1=O [Example 61, 2-[(2E)-2-(aminomethyl)-3-fluoroprop-2-en-1-yl]-4-[4′-(1,2,4-oxadiazol-3-yl)biphenyl-3-yl]-2,4-dihydro-3H-1,2,4-triazol-3-one]	0.65	62000	998	< 100	–

More lines, main results first:

IC50 (recombinant human VAP-1) [nM]	IC50 [1] [nM]	IC50 [2] [nM]	IC50 [3, 4] [nM]	Compound	IC50 [3] [nM]
2	> 100000	5600	> 10000	CN(C)c1ccc(-c2cccc(-n3cnn(C/C(=C/F)CN)c3=O)c2)cc1 [Example 51, 2-[(2E)-2-(aminomethyl)-3-fluoroprop-2-en-1-yl]-4-[4′-(dimethylamino)biphenyl-3-yl]-2,4-dihydro-3H-1,2,4-triazol-3-one hydrochloride]	–
0.4	> 100000	> 10000	< 100	CS(=O)(=O)c1ccc(-c2cccc(-n3cnn(C/C(=C/F)CN)c3=O)c2)cc1 [Example 54, 2-[(2E)-2-(aminomethyl)-3-fluoroprop-2-en-1-yl]-4-[4′-(methylsulfonyl)biphenyl-3-yl]-2,4-dihydro-3H-1,2,4-triazol-3-one hydrochloride]	–
0.3	> 100000	1500	1	CN(C)S(=O)(=O)c1ccc(-c2cccc(-n3cnn(C/C(=C/F)CN)c3=O)c2)cc1 [Example 55, 3′-{1-[(2E)-2-(aminomethyl)-3-fluoroprop-2-en-1-yl]-5-oxo-1,5-dihydro-4H-1,2,4-triazol-4-yl}-N,N-dimethylbiphenyl-4-sulfonamide hydrochloride]	–
0.75	5100	> 10000	110	CC(=O)Nc1ccc(-c2cccc(-n3cnn(C/C(=C\F)CN)c3=O)c2)cc1 [Example 56, N-(3′-{1-[(2Z)-2-(aminomethyl)-3-fluoroprop-2-en-1-yl]-5-oxo-1,5-dihydro-4H-1,2,4-triazol-4-yl}biphenyl-4-yl)acetamide hydrochloride]	–
0.38	1250	> 10000	< 100	CC(=O)Nc1ccc(-c2cccc(-n3cnn(C/C(=C/F)CN)c3=O)c2)cc1 [Example 57, N-(3′-{1-[(2E)-2-(aminomethyl)-3-fluoroprop-2-en-1-yl]-5-oxo-1,5-dihydro-4H-1,2,4-triazol-4-yl}biphenyl-4-yl)acetamide hydrochloride]	–
